Assay results from patent US7923445B2, “Methods for treatment of diseases related to activated lymphocytes” (Immune Control, Inc., priority 2006, dated 2011).

Columns and labels:
[1] = test system: TNF-α; test: LPS-mediated cytokine production model, serum TNF-α; type: in vivo, CD1:ICR mice; settings: for TNFα inhibition in dose-response study: IP, up to a dose of 5 mg/kg, pre-dose 1 hr; for TNFα inhibition, IV versus IP administration: pre-dose time course, 10 mg/kg
Description: Bolus injection of lethal or sub-lethal doses of lipopolysaccharide (LPS; the major component of bacterial cell walls) results in a rapid and transient rise in serum cytokine levels (e.g. TNF-α) in mammals. This animal model was originally developed to mirror certain aspects of septic shock in humans; however, there is poor correlation between efficacy in LPS-rodent models and clinical efficacy. However, this model may be an effective first-line general inflammation model and could be useful in determining the anti-inflammatory potential of test compounds. A variety of clinically approved anti-inflammatory compounds, including glucocorticoids, NSAIDS and COX-2 inhibitors are extremely effective in this model. Compounds ICI-685 and ICI-735 were tested for their ability to inhibit LPS-stimulated TNF-α and IL-1β production.
Both ICI-685 and ICI-735 were formulated in water. For the time course study, both drugs were formulated at a concentration of 1 mg/ml and dosed 10 ml/kg to produce a dose of 10 mg/kg. For the dose-response study, drug was formulated at concentrations of 0.05, 0.2 and 0.5 mg/ml and dosed at a volume of 10 ml/kg to produce doses of 0.5, 2 and 5 mg/kg, respectively. Animals were dosed IV or IP.
CD1:ICR mice were obtained from Harlan (Indianapolis, Ind.) at 6 weeks of age. Animals were housed 5 per cage, kept on a 12 hr light dark cycle and fed food and water ad libitum. Animals were tested at 8-10 weeks of age.
Lipopolysaccharide (heat killed E. coli 0127:B5; Sigma Aldrich) was prepared in distilled water at a concentration of 0.025 mg/ml. LPS was dosed at a volume of 10 ml/kg (IP) to produce a final dose of 0.25 mg/kg (approximately 7.5 μg/mouse). Drugs were dosed prior to LPS administration as indicated elsewhere herein. Blood was collected by retro-orbital eye bleed 90 minutes after LPS administration. Serum was prepared from blood and TNF-α and IL-1β levels were measured by using the OPT-EIA mouse TNF-α and IL-1β ELISA kits (BD Biosciences) as per directions of the manufacturer.
The first study was designed to determine the optimal route of administration and the optimal pre-treatment time. Two pre-dose time course studies were conducted. The first (Study 1A) was conducted with 3 pre-dose time points (2, 6 and 18 hrs). The second was conducted at 0, 1 and 2 hr predose time points. For both studies, drug was dosed IP or IV.
Using data from the first study, a second study was conducted that was designed to measure dose-response activity of each compound. Compounds were tested at doses of 0, 2.0 and 5 mg/kg using the route and pre-treatment time that produced the best activity. […]
Using data from the first study, a second study was conducted that was designed to measure dose-response activity of each compound. Compounds were tested at doses of 0.5, 2.0 and 5 mg/kg using the route and pre-treatment time that produced the best activity.

[2] = test system: Aspergillus fumigatus-based mouse asthma model; test: Aspergillus fumigatus-based mouse asthma model, lung resistance; type: in vivo; settings: intraperitoneally at a dose of 20 mg/ml
Description: Compounds of the invention were also tested for efficiacy in an asthma model.
A cohort of mice were administered intraperitoneal injections of Aspergillus fumigatus on days 0, 14, 26, 27, and 28. Lung resistance was tested on day 29 immediately following a tracheotomy/methacholine procedure. Animals receiving dexamethasone were administered dexamethasone on days 26, 27 and 28. Animals receiving a compound of the invention were administered the compound just hours before the lung resistance test. As a control, all test compounds, as well as dexamethasone, were also administered to mice in the absence of an A. fumigatus insult.

[3] = test system: mice sensitized with collagen injections; test: Clinical arthritis score in mice sensitized with collagen injections; type: in vivo
Description: FIGS. 26-28 illustrate the effect of various compounds of the invention on the clinical arthritis score of mice treated with various compounds of the invention.
Additional testing of the effectiveness of compounds ICI-685, ICI-735 and ICI-847 at higher and lower concentrations were conducted, as illustrated in FIG. 29.

SMILES | TNFα inhibition in dose-response study [1] | TNFα inhibition, IV versus IP administration [1] | decreasing lung resistance, compared with dexamethasone [2] | clinical arthritis score, compared with dexamethasone ([3]; 30 mg/kg) | clinical arthritis score, compared with dexamethasone ([3]; orally at 10 mg/kg daily, for about 21 days)
NCC(=O)NCCN1CCN(CCCCN2c3ccccc3Sc3ccc(C(F)(F)F)cc32)CC1 [ICI-954] | ineffective | IP administration produced slightly better inhibition than IV administration |  |  | 
NCC(=O)NCCN1CCN(CCCN2c3ccccc3Sc3ccc(C(F)(F)F)cc32)CC1 [ICI-735] |  |  | at least as effective as dexamethasone |  | 
CN(C)S(=O)(=O)c1ccc2c(c1)N(CCCN1CCN(CCN)CC1)c1ccccc1S2 [ICI-715] |  | IV administration of ICI-715 produced slightly better inhibition than IV administration |  |  | 
NCCN1CCN(CCCCN2c3ccccc3Sc3ccc(C(F)(F)F)cc32)CC1 [ICI-953] | ineffective | IP administration produced slightly better inhibition than IV administration |  |  | 
NCCCN1CCC(CCCN2c3ccccc3Sc3ccc(C(F)(F)F)cc32)CC1 [ICI-847] |  |  | at least as effective as dexamethasone | as effective for the length of the study as is dexamethasone | as effective as dexamethasone
FC(F)(F)c1ccc2c(c1)N(CCCC1CCNCC1)c1ccccc1S2 [ICI-824] | ineffective | IP administration produced slightly better inhibition than IV administration |  |  | 
